{
  "source": "patent US6800639B2",
  "about": "“Pharmaceutical combination for the treatment of cancer” (Shire BioChem Inc., priority 2001, dated 2004)",
  "key": {"[1]": {"tested_on": "MiaPaCa Human Pancreatic Tumor Xenograft", "test": "Troxacitabine ± Gemcitabine vs. MiaPaCa human pancreatic tumor xenograft", "conditions": "for # of Toxic Deaths / Mice with Complete Shrinkage / Mice with Partial Shrinkage: n 10", "description": "(§1) Female nude mice weighing approximately 20 g were implanted s.c. by trocar with fragments of human tumor harvested from s.c. growing tumors in nude mice hosts. When the tumors were approximately 58mg in size (12 days following inoculation), the animals were pair-matched into treatment and control groups. Each group contained 10 mice, each of which was ear-tagged and followed individually throughout the experiment. Initial doses were given on Day 1 following pair matching. […] Gemcitabine (Eli Lilly, Lot# 4MT16M) was administered intraperitoneally at 40 mg/kg and 80 mg/kg on a q3d×4 schedule.\n(§2) Mice were weighed twice weekly, and tumor measurements were taken by calipers twice weekly, starting on Day 1. These tumor measurements were converted to mg tumor weight by a well-known formula, (W^2×L)/2. The experiment was terminated when the control group tumor size reached an average of 1 gram. Upon termination, the mice were weighed, sacrificed and their tumors were excised. The tumors were weighed, and the mean tumor weight per group was calculated.\n(§3) Some drugs may cause tumor shrinkage in these tumor enograft models. With these agents, the final weight of a given tumor is subtracted from its own weight at the start of treatment on Day 1. This difference, divided by the initial tumor weight, is converted to percent shrinkage. The mean percent tumor shrinkage can be calculated from data from the mice in a group that experienced tumor regressions. If the tumor completely disappears in a mouse, it is considered a complete regression or complete tumor shrinkage."}, "[2]": {"tested_on": "Panc-01 Human Pancreatic Tumor Xenograft", "test": "Troxacitabine ± Gemcitabine vs. Panc-01 human pancreatic tumor xenograft", "conditions": "for Deaths / Mice with Complete Shrinkage / Mice with Partial Shrinkage: n = 10", "description": "as §1, §2, §3"}, "[3]": {"tested_on": "patients with refractory/relapsed leukemia", "test": "β-L OddC alone in patients with refractory/relapsed leukemia", "format": "in vivo, human", "conditions": "single agent; 16 evaluable AML patients", "description": "A study was conducted to investigate the activity of β-L OddC as a single agent in patients with refractory/relapsed leukemia. The study involved the treatment of patients with refractory or relapsed acute myeloid (AML) or lymphocytic (ALL) leukemia, myelodysplastic syndromes (MDS), or chronic myelogenous leukemia in blastic Phase (CML-BP). A total of 42 patients were treated in the study. As a result, a total of 39 patients were assessable for responses."}, "[4]": {"tested_on": "CCRF-CEM cells", "test": "MTT assay with CalcuSyn median-effect analysis, Troxacitabine/araC on CCRF-CEM cells", "format": "cell-based", "text": "The absorbance at 490 nm is directly proportional to the number of living cells in culture at a certain time point. […] Enz. Regulation 22, 1984, pp.27-55. […] Combinations of drugs were then generated around the IC50's of each drug to allow a constant ratio in order to determine if the combination was additive, synergistic or antagonistic. […] A CI below 1 is an indication of synergy, while a CI equal to 1 represents additivity, and a CI above 1 indicates antagonism."}, "[5]": {"test": "Determination of maximum tolerated dose (MTD) in non-tumored mice", "format": "in vivo", "conditions": "i.v. qd×5 schedule"}},
  "data": [
    {"smiles": "Nc1ccn([C@@H]2O[C@H](CO)[C@@H](O)C2(F)F)c(=O)n1", "note": "[Gemcitabine, reference compound]", "values": [
      {"measurement": "% Tumor Growth Inhibition", "setting": "[1]; 40 mg/kg i.p., q3d × 4", "result": 37.3, "unit": "%"},
      {"measurement": "Final Tumor Wt. (Mean ± SEM)", "setting": "[1]; 40 mg/kg i.p., q3d × 4", "result": "733.0 ± 98.7", "unit": "mg"},
      {"measurement": "# of Toxic Deaths", "setting": "[1]; 40 mg/kg i.p., q3d × 4", "result": 0},
      {"measurement": "Mice with Complete Shrinkage", "setting": "[1]; 40 mg/kg i.p., q3d × 4", "result": 0},
      {"measurement": "Mice with Partial Shrinkage", "setting": "[1]; 40 mg/kg i.p., q3d × 4", "result": 0},
      {"measurement": "% Tumor Growth Inhibition", "setting": "[1]; 80 mg/kg i.p., q3d × 4", "result": 53.6, "unit": "%"},
      {"measurement": "Final Tumor Wt. (Mean ± SEM)", "setting": "[1]; 80 mg/kg i.p., q3d × 4", "result": "553.8 ± 124.3", "unit": "mg"},
      {"measurement": "# of Toxic Deaths", "setting": "[1]; 80 mg/kg i.p., q3d × 4", "result": 1},
      {"measurement": "Mice with Complete Shrinkage", "setting": "[1]; 80 mg/kg i.p., q3d × 4", "result": 0},
      {"measurement": "Mice with Partial Shrinkage", "setting": "[1]; 80 mg/kg i.p., q3d × 4", "result": 0},
      {"measurement": "% Tumor Growth Inhibition", "setting": "[2]; 40 mg/kg i.p., q3d × 4", "result": 49.8, "unit": "%"},
      {"measurement": "Final Tumor Wt. (Mean ± SEM)", "setting": "[2]; 40 mg/kg i.p., q3d × 4", "result": "457.8 ± 113.9", "unit": "mg"},
      {"measurement": "Deaths", "setting": "[2]; 40 mg/kg i.p., q3d × 4", "result": 0},
      {"measurement": "Mice with Complete Shrinkage", "setting": "[2]; 40 mg/kg i.p., q3d × 4", "result": 0},
      {"measurement": "Mice with Partial Shrinkage", "setting": "[2]; 40 mg/kg i.p., q3d × 4", "result": 0},
      {"measurement": "% Tumor Growth Inhibition", "setting": "[2]; 80 mg/kg i.p., q3d × 4", "result": 74.3, "unit": "%"},
      {"measurement": "Final Tumor Wt. (Mean ± SEM)", "setting": "[2]; 80 mg/kg i.p., q3d × 4", "result": "262.2 ± 67.7", "unit": "mg"},
      {"measurement": "Deaths", "setting": "[2]; 80 mg/kg i.p., q3d × 4", "result": 0},
      {"measurement": "Mice with Complete Shrinkage", "setting": "[2]; 80 mg/kg i.p., q3d × 4", "result": 0},
      {"measurement": "Mice with Partial Shrinkage", "setting": "[2]; 80 mg/kg i.p., q3d × 4", "result": 0}
    ]},
    {"smiles": "Nc1ccn([C@@H]2CO[C@H](CO)O2)c(=O)n1", "note": "[Troxacitabine, (−)-β-L-Dioxolane-Cytidine]", "values": [
      {"measurement": "complete remissions", "setting": "[3]", "result": 2},
      {"measurement": "partial remissions", "setting": "[3]", "result": 1},
      {"measurement": "remission rate (complete + partial)", "setting": "[3]", "result": 18, "unit": "%"},
      {"measurement": "% Toxicity", "setting": "[4]; Troxacitabine 20 nM, 72 h continuous exposure", "result": 0, "unit": "%"},
      {"measurement": "% Toxicity", "setting": "[4]; Troxacitabine 31 nM, 2 h exposure, MTT at 72 hr", "result": "3 ± 3", "unit": "%"},
      {"measurement": "% Toxicity", "setting": "[4]; Troxacitabine 62 nM, 2 h exposure, MTT at 72 hr", "result": "12 ± 7", "unit": "%"},
      {"measurement": "% Toxicity", "setting": "[4]; Troxacitabine 100 nM, 72 h continuous exposure", "result": "28 ± 5", "unit": "%"},
      {"measurement": "% Toxicity", "setting": "[4]; Troxacitabine 125 nM, 2 h exposure, MTT at 72 hr", "result": "11 ± 2", "unit": "%"},
      {"measurement": "% Toxicity", "setting": "[4]; Troxacitabine 250 nM, 2 h exposure, MTT at 72 hr", "result": "24 ± 3", "unit": "%"},
      {"measurement": "% Toxicity", "setting": "[4]; Troxacitabine 500 nM, 2 h exposure, MTT at 72 hr", "result": "34 ± 6", "unit": "%"},
      {"measurement": "% Toxicity", "setting": "[4]; Troxacitabine 500 nM, 72 h continuous exposure", "result": "65 ± 2", "unit": "%"},
      {"measurement": "% Toxicity", "setting": "[4]; Troxacitabine 2500 nM, 72 h continuous exposure", "result": "90 ± 2", "unit": "%"},
      {"measurement": "% Toxicity", "setting": "[4]; Troxacitabine 12500 nM, 72 h continuous exposure", "result": "98 ± 1", "unit": "%"},
      {"measurement": "% Tumor Growth Inhibition", "setting": "[1]; 10 mg/kg i.v., qd × 5", "result": 23.9, "unit": "%"},
      {"measurement": "Final Tumor Wt. (Mean ± SEM)", "setting": "[1]; 10 mg/kg i.v., qd × 5", "result": "872.7 ± 171.1", "unit": "mg"},
      {"measurement": "# of Toxic Deaths", "setting": "[1]; 10 mg/kg i.v., qd × 5", "result": 3},
      {"measurement": "Mice with Complete Shrinkage", "setting": "[1]; 10 mg/kg i.v., qd × 5", "result": 0},
      {"measurement": "Mice with Partial Shrinkage", "setting": "[1]; 10 mg/kg i.v., qd × 5", "result": 0},
      {"measurement": "% Tumor Growth Inhibition", "setting": "[1]; 25 mg/kg i.v., qd × 5", "result": 29.7, "unit": "%"},
      {"measurement": "Final Tumor Wt. (Mean ± SEM)", "setting": "[1]; 25 mg/kg i.v., qd × 5", "result": "813.4 ± 57.9", "unit": "mg"},
      {"measurement": "# of Toxic Deaths", "setting": "[1]; 25 mg/kg i.v., qd × 5", "result": 0},
      {"measurement": "Mice with Complete Shrinkage", "setting": "[1]; 25 mg/kg i.v., qd × 5", "result": 0},
      {"measurement": "Mice with Partial Shrinkage", "setting": "[1]; 25 mg/kg i.v., qd × 5", "result": 0},
      {"measurement": "Final Tumor Wt. (Mean ± SEM)", "setting": "[2]; 10 mg/kg i.v., qd × 5", "result": "11.1 ± 2.1", "unit": "mg"},
      {"measurement": "Mean % Tumor Shrinkage", "setting": "[2]; 10 mg/kg i.v., qd × 5", "result": 77.5, "unit": "%"},
      {"measurement": "Deaths", "setting": "[2]; 10 mg/kg i.v., qd × 5", "result": 0},
      {"measurement": "Mice with Complete Shrinkage", "setting": "[2]; 10 mg/kg i.v., qd × 5", "result": 1},
      {"measurement": "Mice with Partial Shrinkage", "setting": "[2]; 10 mg/kg i.v., qd × 5", "result": 9},
      {"measurement": "Final Tumor Wt. (Mean ± SEM)", "setting": "[2]; 25 mg/kg i.v., qd × 5", "result": "12.5 ± 1.9", "unit": "mg"},
      {"measurement": "Mean % Tumor Shrinkage", "setting": "[2]; 25 mg/kg i.v., qd × 5", "result": 72.6, "unit": "%"},
      {"measurement": "Deaths", "setting": "[2]; 25 mg/kg i.v., qd × 5", "result": 0},
      {"measurement": "Mice with Complete Shrinkage", "setting": "[2]; 25 mg/kg i.v., qd × 5", "result": 1},
      {"measurement": "Mice with Partial Shrinkage", "setting": "[2]; 25 mg/kg i.v., qd × 5", "result": 9},
      {"measurement": "maximum tolerated dose", "setting": "[5]", "result": "greater than 25 mg/kg"}
    ]}
  ]
}
